Reference: ChEMBL document CHEMBL1255445, “Evaluation of nucleoside hydrolase inhibitors for treatment of African trypanosomiasis” (Antimicrob Agents Chemother, 2010)
Values belong to the compound of their own block, whether it stands above or below them. Active and inactive are the calls of the source. The rule behind the calls is not given here.

Tests used:
[1] = Inhibition of Trypanosoma vivax Inosine-adenosine-guanosine-nucleoside hydrolase
Trypanosoma cruzi = test: Antitrypanosomal activity against Trypanosoma cruzi Tulahuen CL2 s-galactosidase strain assessed as reduction in parasite growth after 3 days by fluorometrically; format: functional, organism-based
Plasmodium falciparum = test: Antiparasitic activity against chloroquine-sensitive Plasmodium falciparum Ghana assessed as reduction in parasite growth after 3 days by fluorimetry; format: functional, organism-based
[2] = tested on: Trypanosoma brucei brucei; test: Antitrypanosomal activity against suramin sensitive Trypanosoma brucei brucei Lister 427 assessed as reduction in parasite growth after 3 days by fluorometrically; format: functional, organism-based; details: Lister 427, 72 h
Leishmania infantum = test: Antileishmanial activity against Leishmania infantum MHOM/MA/67/ITMAP263 intracellular amastigotes assessed as reduction in parasite growth after 3 days by fluorometrically; format: functional, organism-based
[3] = Inhibition of human purine nucleoside phosphorylase

Compound: OC[C@@H]1[C@@H](O)[C@@H](O)CN1Cc1ccnc2ccccc12
Ki [1]: 29 µM | Activity (Trypanosoma cruzi): inactive | Activity (Plasmodium falciparum): inactive | IC50 [2]: > 64 µM | Activity (Leishmania infantum): inactive

Compound: Nc1ccc2cccc(CN3C[C@H](O)[C@H](O)[C@H]3CO)c2n1
Ki [1]: 8.4 µM | Activity (Trypanosoma cruzi): inactive | Activity (Plasmodium falciparum): inactive | IC50 [2]: > 64 µM | Activity (Leishmania infantum): inactive

Compound: COc1cccc2c(CN3C[C@H](O)[C@H](O)[C@H]3CO)c[nH]c12
Ki [1]: 2.3 µM | Ki [3]: > 400 µM | Activity (Trypanosoma cruzi): inactive | Activity (Plasmodium falciparum): inactive | IC50 [2]: > 64 µM | Activity (Leishmania infantum): inactive

Compound: OC[C@@H]1[C@@H](O)[C@@H](O)CN1Cc1cnc2ccccc2c1
Ki [1]: 20 µM | Activity (Trypanosoma cruzi): inactive | Activity (Plasmodium falciparum): inactive | IC50 [2]: > 64 µM | Activity (Leishmania infantum): inactive

Compound: COc1ccc(CN2C[C@H](O)[C@H](O)[C@H]2CO)cn1
Ki [1]: 32 µM | Activity (Trypanosoma cruzi): inactive | Activity (Plasmodium falciparum): inactive | IC50 [2]: > 64 µM | Activity (Leishmania infantum): inactive

Compound: Cc1nc(-c2ccccc2)ncc1CN1C[C@H](O)[C@H](O)[C@H]1CO
Ki [1]: 43 µM | Activity (Trypanosoma cruzi): inactive | Activity (Plasmodium falciparum): inactive | IC50 [2]: > 64 µM | Activity (Leishmania infantum): inactive

Compound: N=C(N)NCCN1C[C@H](O)[C@H](O)[C@H]1CO
Ki [1]: 286 µM | Activity (Trypanosoma cruzi): inactive | Activity (Plasmodium falciparum): inactive | IC50 [2]: > 64 µM | Activity (Leishmania infantum): inactive

Compound: O=[N+]([O-])c1cccc(CN2C[C@H](O)[C@H](O)[C@H]2CO)c1
Ki [1]: 23 µM | Activity (Trypanosoma cruzi): inactive | Activity (Plasmodium falciparum): inactive | IC50 [2]: > 64 µM | Activity (Leishmania infantum): inactive

Compound: O=c1cc[nH]c2c(CN3C[C@H](O)[C@H](O)[C@H]3CO)cccc12
Ki [1]: 13.1 µM | Ki [3]: > 500 µM | Activity (Trypanosoma cruzi): inactive | Activity (Plasmodium falciparum): inactive | IC50 [2]: > 64 µM | Activity (Leishmania infantum): inactive

Compound: OC[C@@H]1[C@@H](O)[C@@H](O)CN1Cc1ccccc1
Ki [1]: 58 µM | Activity (Trypanosoma cruzi): inactive | Activity (Plasmodium falciparum): inactive | Activity (Leishmania infantum): inactive

Compound: OC[C@@H]1[C@@H](O)[C@@H](O)CN1Cc1c[nH]c2ccccc12
Ki [1]: 12 µM | Ki [3]: > 800 µM | Activity (Trypanosoma cruzi): inactive | Activity (Plasmodium falciparum): inactive | IC50 [2]: > 64 µM | Activity (Leishmania infantum): inactive

Compound: OC[C@@H]1[C@@H](O)[C@@H](O)CN1CCc1c[nH]c2ccccc12
Ki [1]: 9.5 µM | Activity (Trypanosoma cruzi): inactive | Activity (Plasmodium falciparum): inactive | IC50 [2]: 31 µM | Activity (Leishmania infantum): inactive

Compound: Cc1cc(N)c2cccc(CN3C[C@H](O)[C@H](O)[C@H]3CO)c2n1
Ki [1]: 71 µM | Activity (Trypanosoma cruzi): inactive | Activity (Plasmodium falciparum): inactive | IC50 [2]: > 64 µM | Activity (Leishmania infantum): inactive

Compound: O=c1ccc2cccc(CN3C[C@H](O)[C@H](O)[C@H]3CO)c2[nH]1
Ki [1]: 187 µM | Activity (Trypanosoma cruzi): inactive | Activity (Plasmodium falciparum): inactive | IC50 [2]: > 64 µM | Activity (Leishmania infantum): inactive

Compound: O=[N+]([O-])c1ccc(CN2C[C@H](O)[C@H](O)[C@H]2CO)cc1
Ki [1]: 7.5 µM | Activity (Trypanosoma cruzi): inactive | Activity (Plasmodium falciparum): inactive | IC50 [2]: > 64 µM | Activity (Leishmania infantum): inactive

Compound: Nc1ncccc1CN1C[C@H](O)[C@H](O)[C@H]1CO
Ki [1]: 121 µM | Activity (Trypanosoma cruzi): inactive | Activity (Plasmodium falciparum): inactive | IC50 [2]: > 64 µM | Activity (Leishmania infantum): inactive

Compound: OC[C@@H]1[C@@H](O)[C@@H](O)CN1Cc1ccncc1
Ki [1]: 20 µM | Activity (Trypanosoma cruzi): inactive | Activity (Plasmodium falciparum): inactive | Activity (Leishmania infantum): inactive

Compound: N#Cc1ccc(CN2C[C@H](O)[C@H](O)[C@H]2CO)cc1
Ki [1]: 26 µM | Activity (Trypanosoma cruzi): inactive | Activity (Plasmodium falciparum): inactive | Activity (Leishmania infantum): inactive

Compound: CN1C(CCNC(=N)N)[C@H](O)[C@H](O)[C@H]1CO (some centres not stated)
Ki [1]: 18 µM | Activity (Trypanosoma cruzi): inactive | Activity (Plasmodium falciparum): inactive | Activity (Leishmania infantum): inactive

Compound: N=C(N)NCCCN1C[C@H](O)[C@H](O)[C@H]1CO
Ki [1]: 39.9 µM | Activity (Trypanosoma cruzi): inactive | Activity (Plasmodium falciparum): inactive | IC50 [2]: > 64 µM | Activity (Leishmania infantum): inactive

More lines, main results first:

Ki [1]: 0.31 µM | IC50 [2]: 29 µM
Compound: OC[C@@H]1[C@@H](O)[C@@H](O)CN1Cc1cccc2ccc(Cl)nc12
Activity (Trypanosoma cruzi): inactive | Activity (Plasmodium falciparum): inactive | Activity (Leishmania infantum): inactive

Ki [1]: 3.4 µM | IC50 [2]: 29 µM
Compound: OC[C@@H]1[C@@H](O)[C@@H](O)CN1Cc1cccc(-n2cccc2)c1
Activity (Trypanosoma cruzi): inactive | Activity (Plasmodium falciparum): inactive | Activity (Leishmania infantum): inactive

Ki [1]: 0.014 µM | Ki [3]: > 1000 µM | IC50 [2]: 25 µM
Compound: OC[C@@H]1[C@@H](O)[C@@H](O)CN1Cc1cccc2c(Cl)ccnc12
Activity (Trypanosoma cruzi): inactive | Activity (Plasmodium falciparum): inactive | Activity (Leishmania infantum): inactive

Ki [1]: 2.1 µM
Compound: Cn1c(CN2C[C@H](O)[C@H](O)[C@H]2CO)nc2ccccc21
Activity (Trypanosoma cruzi): inactive | Activity (Plasmodium falciparum): inactive | Activity (Leishmania infantum): inactive

Ki [1]: 0.75 µM
Compound: OC[C@@H]1[C@@H](O)[C@@H](O)CN1Cc1nccc2ccccc12
Activity (Trypanosoma cruzi): inactive | Activity (Plasmodium falciparum): inactive | Activity (Leishmania infantum): inactive

Ki [1]: 0.18 µM
Compound: OC[C@@H]1[C@@H](O)[C@@H](O)CN1Cc1ccc2ccccc2n1
Activity (Trypanosoma cruzi): inactive | Activity (Plasmodium falciparum): inactive | Activity (Leishmania infantum): inactive

Ki [1]: 7 µM | IC50 [2]: > 64 µM
Compound: N=C(N)Nc1ccc(CN2C[C@H](O)[C@H](O)[C@H]2CO)cc1
Activity (Trypanosoma cruzi): inactive | Activity (Plasmodium falciparum): inactive | Activity (Leishmania infantum): inactive

Ki [1]: 0.37 µM | IC50 [2]: 22 µM
Compound: Cc1cc(Cl)c2cccc(CN3C[C@H](O)[C@H](O)[C@H]3CO)c2n1
Activity (Trypanosoma cruzi): inactive | Activity (Plasmodium falciparum): inactive | Activity (Leishmania infantum): inactive

Ki [1]: 2 µM | IC50 [2]: > 64 µM
Compound: OC[C@@H]1[C@@H](O)[C@@H](O)CN1Cc1ccc2ccccc2c1
Activity (Trypanosoma cruzi): inactive | Activity (Plasmodium falciparum): inactive | Activity (Leishmania infantum): inactive

Ki [1]: 3.8 µM | IC50 [2]: > 64 µM
Compound: N#Cc1cccc(CN2C[C@H](O)[C@H](O)[C@H]2CO)c1
Activity (Trypanosoma cruzi): inactive | Activity (Plasmodium falciparum): inactive | Activity (Leishmania infantum): inactive

Ki [1]: 0.063 µM | IC50 [2]: > 64 µM
Compound: Cc1nn(-c2ccccc2)nc1CN1C[C@H](O)[C@H](O)[C@H]1CO
Activity (Trypanosoma cruzi): inactive | Activity (Plasmodium falciparum): inactive | Activity (Leishmania infantum): inactive

Ki [1]: 0.05 µM | Ki [3]: > 1000 µM | IC50 [2]: > 64 µM
Compound: Nc1ccnc2c(CN3C[C@H](O)[C@H](O)[C@H]3CO)cccc12
Activity (Trypanosoma cruzi): inactive | Activity (Plasmodium falciparum): inactive | Activity (Leishmania infantum): inactive

Ki [1]: 0.015 µM | Ki [3]: > 1000 µM | IC50 [2]: > 64 µM
Compound: Nc1ncnc2c(CN3C[C@H](O)[C@H](O)[C@H]3CO)cccc12
Activity (Trypanosoma cruzi): inactive | Activity (Plasmodium falciparum): inactive | Activity (Leishmania infantum): inactive

Ki [1]: 1 µM | IC50 [2]: 38 µM
Compound: OC[C@@H]1[C@@H](O)[C@@H](O)CN1Cc1ccc(-n2cccc2)cc1
Activity (Trypanosoma cruzi): inactive | Activity (Plasmodium falciparum): inactive | Activity (Leishmania infantum): inactive

Ki [1]: 0.14 µM | Ki [3]: > 1000 µM | IC50 [2]: > 64 µM
Compound: OC[C@@H]1[C@@H](O)[C@@H](O)CN1Cc1cccc2nccnc12
Activity (Trypanosoma cruzi): inactive | Activity (Plasmodium falciparum): inactive | Activity (Leishmania infantum): inactive

Ki [1]: 0.042 µM | Ki [3]: > 1000 µM | IC50 [2]: > 64 µM
Compound: OC[C@@H]1[C@@H](O)[C@@H](O)CN1Cc1csc2cncnc12
Activity (Trypanosoma cruzi): inactive | Activity (Plasmodium falciparum): inactive | Activity (Leishmania infantum): inactive

Ki [1]: 0.72 µM | IC50 [2]: > 64 µM
Compound: Cn1nnc2cc(CN3C[C@H](O)[C@H](O)[C@H]3CO)ccc21
Activity (Trypanosoma cruzi): inactive | Activity (Plasmodium falciparum): inactive | Activity (Leishmania infantum): inactive

Ki [1]: 6 µM | IC50 [2]: > 64 µM
Compound: OC[C@H]1NC[C@H](O)[C@@H]1O [IMINORIBITOL]
Activity (Trypanosoma cruzi): inactive | Activity (Plasmodium falciparum): inactive | Activity (Leishmania infantum): inactive

Ki [1]: 1.2 µM | IC50 [2]: > 64 µM
Compound: OC[C@@H]1[C@@H](O)[C@@H](O)CN1Cc1ccc(-n2cncn2)cc1
Activity (Trypanosoma cruzi): inactive | Activity (Plasmodium falciparum): inactive | Activity (Leishmania infantum): inactive

Ki [1]: 1.3 µM | IC50 [2]: > 64 µM
Compound: COc1ccc2cccc(CN3C[C@H](O)[C@H](O)[C@H]3CO)c2n1
Activity (Trypanosoma cruzi): inactive | Activity (Plasmodium falciparum): inactive | Activity (Leishmania infantum): inactive

Ki [1]: 0.72 µM | IC50 [2]: > 64 µM
Compound: OC[C@@H]1[C@@H](O)[C@@H](O)CN1Cc1ccc2cccnc2c1
Activity (Trypanosoma cruzi): inactive | Activity (Plasmodium falciparum): inactive | Activity (Leishmania infantum): inactive

Ki [1]: 1.2 µM | IC50 [2]: > 64 µM
Compound: OC[C@@H]1[C@@H](O)[C@@H](O)CN1Cc1ccc(-n2cccn2)cc1
Activity (Trypanosoma cruzi): inactive | Activity (Plasmodium falciparum): inactive | Activity (Leishmania infantum): inactive

Ki [1]: 1 µM | IC50 [2]: 49 µM
Compound: OC[C@@H]1[C@@H](O)[C@@H](O)CN1Cc1ccc2cccc(O)c2n1
Activity (Trypanosoma cruzi): inactive | Activity (Plasmodium falciparum): inactive | Activity (Leishmania infantum): inactive

Ki [1]: 4.3 µM | IC50 [2]: > 64 µM
Compound: OC[C@@H]1[C@@H](O)[C@@H](O)CN1Cc1ccc(I)cc1
Activity (Trypanosoma cruzi): inactive | Activity (Plasmodium falciparum): inactive | Activity (Leishmania infantum): inactive

Ki [1]: 0.11 µM | Ki [3]: > 1000 µM | IC50 [2]: > 64 µM
Compound: O=c1[nH]cnc2c(CN3C[C@H](O)[C@H](O)[C@H]3CO)cccc12
Activity (Trypanosoma cruzi): inactive | Activity (Plasmodium falciparum): inactive | Activity (Leishmania infantum): inactive

Ki [1]: 6.7 µM | IC50 [2]: 48 µM
Compound: N=C(N)c1ccc(CN2C[C@H](O)[C@H](O)[C@H]2CO)cc1
Activity (Trypanosoma cruzi): inactive | Activity (Plasmodium falciparum): inactive | Activity (Leishmania infantum): inactive
